A short description of the data set: Photostability under continuous UV excitation. The following applies: continuous UV excitation for 3 h. The format is physicochemical. As to the method:
The photostability of ABPLP micelles was also investigated and compared to the organic fluorescent dye rhodamine-B. The fluorescence intensity of the ABPLP micelle solution decreased by only 1 percent of the initial intensity after continuous UV excitation for 3 h, indicating excellent photostability. In contrast, rhodamine-B lost almost 10 percent of initial fluorescence intensity within the same experimental period.

The values that follow come from US9840583B2, “Fluorescent polymers and applications thereof” (Board of Regents, The University of Texas System, priority 2013, dated 2017).

On to `CCN(CC)c1ccc2c(-c3ccccc3C(=O)O)c3ccc(=[N+](CC)CC)cc-3oc2c1.[Cl-]` [rhodamine-B], for which the “Loss of initial fluorescence intensity” value is given as ~10%.
